# pIC50: −log10 of the molar value. Where two headings read alike, the source gives them in different places.
# Experiments:
# [1] = molecular target: T1, EZH2/SUZ/EED (Homo sapiens, UniProt O75530+Q15022+Q15910); experiment: Inhibitory effect on EZH2 by the MTase-Glo method (Test Example 1); format: biochemical; conditions: EZH2/SUZ/EED 6.25 nM, H3 peptide 10 μM, SAM 3 μM, 30° C. 3 h, read-out: Test Example 1 WT EZH2 IC50
# T1 construct: purchased BPS 51003
# Method: (§1) The compound was dissolved in DMSO, and the compound was serially diluted using ECHO665 and transferred to a 384-well reaction plate (Corning, 3824). A sample containing only DMSO was added as a positive control (maximum signal control) and a negative control (minimum signal control), while ensuring that the final DMSO content in each reaction well was 0.5%. The protein was configured in reaction buffer (50 mM Bicine, 0.01% Triton X-100, 1 mM DTT, 0.01% BSA, pH 7.6), such that the final reaction concentrations of EZH2/SUZ/EED (BPS, 51003) protein solution and EZH1/SUZ/EED (BPS, 51006) were 6.25 nM and 25 nM, respectively. The negative control (minimum signal control) used an equal amount of buffer instead of protein solution. The prepared protein solution was added to the 384-well reaction plate and pre-incubated at room temperature for 15 minutes. The mixture of the substrate H3 peptide fragment (custom-synthesized by GenScript, biotinylated Histone H3(21-44) peptide ([…]-GG-K(Biotin)-OH)) prepared in the reaction buffer and SAM (Promega, V7601) was added into the 384-well plate, such that the final reaction concentration of H3 peptide fragment was 10 μM, and the final concentration of SAM was 3 μM. The mixture was centrifuged at 1000 rpm for 1 min. The 384-well reaction plate was placed in a constant temperature shaker and incubate at 30° C. for 3 h at a speed of 300 rpm. Then the detection reagent was added according to the experimental process of the kit MTase-Glo (Promega, V7601) and incubated.
# (§2) After incubation, read with BMG PHERAStar. The luminescence signals obtained by positive control (maximum signal control) and negative control (minimum signal control) were normalized to obtain the inhibition rate of different concentrations of compounds. Then, the IC50 of the compound on the enzyme activity inhibition was calculated by GraphPad Prism 6 with log(inhibitor) vs. response-Variable slope model fitting. The fitting equation is: Y=Bottom+(Top−Bottom)/(1+10^((Log IC50−X)*HillSlope)), wherein Y represents the known percentage remaining enzyme activity, and X represents the known activity after Log compound concentration.
# [2] = molecular target: T2, EZH1/SUZ/EED (Homo sapiens, UniProt O75530+Q15022+Q92800); experiment: Inhibitory effect on EZH1 by the MTase-Glo method (Test Example 1); format: biochemical; conditions: EZH1/SUZ/EED 25 nM, H3 peptide 10 μM, SAM 3 μM, 30° C. 3 h, read-out: Test Example 1 WT EZH1 IC50
# T2 construct: purchased BPS 51006
# T2 sequence (Q92800 2-747 limits assumed): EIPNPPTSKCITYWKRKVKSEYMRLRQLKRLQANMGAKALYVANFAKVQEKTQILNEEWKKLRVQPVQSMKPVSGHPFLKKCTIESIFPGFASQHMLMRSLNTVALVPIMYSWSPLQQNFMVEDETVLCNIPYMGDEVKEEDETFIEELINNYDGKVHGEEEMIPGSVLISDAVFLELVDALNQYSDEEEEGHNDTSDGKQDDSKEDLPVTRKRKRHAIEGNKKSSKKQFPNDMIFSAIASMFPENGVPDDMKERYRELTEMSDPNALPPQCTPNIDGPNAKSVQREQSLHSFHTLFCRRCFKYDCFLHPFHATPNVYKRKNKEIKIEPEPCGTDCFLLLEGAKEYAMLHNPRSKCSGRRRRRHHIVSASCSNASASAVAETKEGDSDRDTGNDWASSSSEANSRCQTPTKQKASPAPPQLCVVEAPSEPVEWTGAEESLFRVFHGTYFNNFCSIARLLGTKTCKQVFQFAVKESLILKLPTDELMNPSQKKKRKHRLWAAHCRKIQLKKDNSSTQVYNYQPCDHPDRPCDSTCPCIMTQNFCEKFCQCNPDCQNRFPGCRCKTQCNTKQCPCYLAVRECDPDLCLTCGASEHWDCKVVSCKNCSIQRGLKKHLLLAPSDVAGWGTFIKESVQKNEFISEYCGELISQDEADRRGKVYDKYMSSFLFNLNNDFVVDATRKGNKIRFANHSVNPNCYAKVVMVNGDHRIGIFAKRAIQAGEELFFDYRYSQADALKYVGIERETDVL
# T2 sequence (Q15022 2-739 partner limits assumed): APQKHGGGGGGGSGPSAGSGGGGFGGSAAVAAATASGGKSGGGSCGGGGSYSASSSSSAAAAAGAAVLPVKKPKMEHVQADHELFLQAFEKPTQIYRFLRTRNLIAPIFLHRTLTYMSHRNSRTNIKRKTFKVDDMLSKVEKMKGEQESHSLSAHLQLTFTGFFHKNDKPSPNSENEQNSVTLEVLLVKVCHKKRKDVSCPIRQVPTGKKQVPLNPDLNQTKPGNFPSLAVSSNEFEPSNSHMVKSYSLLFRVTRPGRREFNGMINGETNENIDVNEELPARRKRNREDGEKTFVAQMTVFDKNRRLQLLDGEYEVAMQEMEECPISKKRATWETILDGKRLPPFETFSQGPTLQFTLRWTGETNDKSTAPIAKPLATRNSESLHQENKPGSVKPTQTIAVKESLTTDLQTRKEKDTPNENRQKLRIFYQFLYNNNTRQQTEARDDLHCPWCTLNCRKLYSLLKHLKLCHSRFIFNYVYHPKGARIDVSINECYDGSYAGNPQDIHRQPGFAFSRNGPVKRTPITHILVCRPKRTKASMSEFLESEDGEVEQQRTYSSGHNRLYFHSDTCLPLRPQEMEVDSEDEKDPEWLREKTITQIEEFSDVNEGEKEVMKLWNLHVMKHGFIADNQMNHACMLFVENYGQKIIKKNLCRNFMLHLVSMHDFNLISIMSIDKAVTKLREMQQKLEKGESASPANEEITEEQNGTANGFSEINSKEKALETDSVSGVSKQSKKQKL
# T2 sequence (O75530 2-441 partner limits assumed): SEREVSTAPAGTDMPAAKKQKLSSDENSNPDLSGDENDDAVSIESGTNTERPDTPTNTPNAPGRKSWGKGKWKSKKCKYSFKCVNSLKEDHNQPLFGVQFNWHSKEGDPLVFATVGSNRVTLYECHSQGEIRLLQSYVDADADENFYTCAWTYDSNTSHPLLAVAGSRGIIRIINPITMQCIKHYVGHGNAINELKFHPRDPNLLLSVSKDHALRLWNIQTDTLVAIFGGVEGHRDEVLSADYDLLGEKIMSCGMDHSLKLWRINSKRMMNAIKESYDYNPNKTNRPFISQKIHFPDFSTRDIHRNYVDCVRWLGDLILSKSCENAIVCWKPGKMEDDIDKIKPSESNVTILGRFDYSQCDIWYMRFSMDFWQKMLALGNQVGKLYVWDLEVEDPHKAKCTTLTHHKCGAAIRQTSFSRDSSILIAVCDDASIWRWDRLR
# Method: as §1, §2
# [3] = tested on: H3K27Me3 methylation in Karpas-422 cells; experiment: H3K27Me3 cell method, inhibition of H3K27Me3 methylation (Test Example 2); format: cell-based, human; conditions: for pIC50: Karpas-422 cells, 3 days incubation, HTRF signal, read-out: Test Example 2 H3K27Me3 inhibition (Karpas-422) IC50
# Method: Karpas-422 (Nanjing Kebai, CBP60629) cells were seeded in a 96-well plate (Corning, 3894) at 15,000 cells per well in culture medium (80% 1640 (Hyclone, SH30809.01)+20% FBS (Corning, 35-081-CV)), and then added with different concentrations of compounds for treatment. The cell growth group without adding compounds is used as a positive control (maximum signal control), and the medium is used as a negative control (minimum signal control), while ensuring that in each reaction well, the final concentration of DMSO was 0.2%. Compounds and cells were incubated for 3 days in a cell culture incubator (37° C., 5% CO2). The 96-well plate was taken out from the cell culture incubator and equilibrated to room temperature, and 25 ul of cell suspension was taken out into a 384-well plate. The CCK8 (Beiyuntian, C0040) detection reagent was added, incubated at 37° C. for 1 h, and […] was detected. The rest of the cells followed the procedure of the kit EPIgeneous H3K27Me3 cellular kit (Cisbio, 62KC3PAE) to carry out experiment, read HTRF signal with BMG PHERAStar. […] By GraphPad Prism 6 with log(inhibitor)vs.response-Variable slope model simulation, the IC50 of the compound on cell activity inhibition was calculated. The fitting equation is: Y=Bottom+(Top−Bottom)/(1+10^((Log IC50−X)*HillSlope)), wherein Y represents the inhibition rate, and X represents the known concentration of the compound after Log.
# T1 sequence (Q15910 2-746 limits assumed): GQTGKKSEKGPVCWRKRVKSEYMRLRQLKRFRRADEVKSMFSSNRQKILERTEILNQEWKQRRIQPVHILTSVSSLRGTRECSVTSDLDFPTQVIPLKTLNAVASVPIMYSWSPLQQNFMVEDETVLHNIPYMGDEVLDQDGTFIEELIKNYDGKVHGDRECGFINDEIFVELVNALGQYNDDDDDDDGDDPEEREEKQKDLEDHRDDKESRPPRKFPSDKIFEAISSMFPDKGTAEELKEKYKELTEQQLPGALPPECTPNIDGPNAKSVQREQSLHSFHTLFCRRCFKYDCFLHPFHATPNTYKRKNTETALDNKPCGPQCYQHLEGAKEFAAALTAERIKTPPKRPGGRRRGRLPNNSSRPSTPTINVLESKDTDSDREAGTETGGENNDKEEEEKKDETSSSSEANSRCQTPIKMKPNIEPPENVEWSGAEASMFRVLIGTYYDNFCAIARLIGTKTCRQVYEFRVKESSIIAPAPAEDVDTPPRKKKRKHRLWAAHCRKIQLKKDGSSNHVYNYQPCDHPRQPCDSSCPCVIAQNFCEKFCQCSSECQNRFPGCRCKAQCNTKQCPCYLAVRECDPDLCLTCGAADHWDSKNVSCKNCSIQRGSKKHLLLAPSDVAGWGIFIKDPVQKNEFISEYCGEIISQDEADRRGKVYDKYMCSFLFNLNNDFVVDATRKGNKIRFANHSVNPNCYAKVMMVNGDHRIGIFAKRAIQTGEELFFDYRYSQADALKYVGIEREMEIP
# T1 sequence (Q15022 2-739 partner limits assumed): as the sequence (Q15022 2-739 partner limits assumed) above
# T1 sequence (O75530 2-441 partner limits assumed): as the sequence (O75530 2-441 partner limits assumed) above
SMILES,pIC50 [1],pIC50 [2],"pIC50 ([3]; Homo sapiens, KARPAS-422, 72 h)",pIC50 [3],"IC50 ([3]; Homo sapiens, KARPAS-422, 72 h, read-out: Test Example 2 H3K27Me3 inhibition (Karpas-422) IC50(nM)) [nM]"
"Cc1cc(C)c(CNC(=O)c2cc(Cl)c3c(c2C)OC(C2CCC(N4CC(F)(F)C4)CC2)CO3)c(=O)[nH]1 (single isomer, unassigned) [Compound 57]",7.66,6.59,< 6.00,,
"Cc1cc(C)c(CNC(=O)c2cc(Cl)c3c(c2C)OC(C2CCC(N4CC(F)(F)C4)CC2)CO3)c(=O)[nH]1 (single isomer, unassigned) [Compound 58]",7.45,5.64,,< 6.00,
"Cc1cc(C)c(CNC(=O)c2cc(Cl)c3c(c2C)OC(C2CCC(N4CC5COCC5C4)CC2)CO3)c(=O)[nH]1 (single isomer, unassigned) [Compound 59]",8.02,8.15,,6.63,
"CON(C)C1CCC(C2COc3c(Cl)cc(C(=O)NCc4c(C)cc(C)[nH]c4=O)c(C)c3O2)CC1 (single isomer, unassigned) [Compound 78]",7.92,,,,370
"Cc1cc(C)c(CNC(=O)c2cc(Cl)c3c(c2C)OC(C2CCC(N4CCOCC4)CC2)CO3)c(=O)[nH]1 (single isomer, unassigned) [Compound 81]",7.51,,< 6.00,,
COC1CN([C@H]2CC[C@H]([C@H]3COc4c(Cl)cc(C(=O)NCc5c(SC)cc(C)[nH]c5=O)c(C)c4O3)CC2)C1 [Compound 9],8.51,,7.85,,
CSc1cc(C)[nH]c(=O)c1CNC(=O)c1cc(Cl)c2c(c1C)O[C@H]([C@H]1CC[C@H](N3CC(OC4CC4)C3)CC1)CO2 [Compound 12],8.59,,8.03,,
CSc1cc(C)[nH]c(=O)c1CNC(=O)c1cc(Cl)c2c(c1C)O[C@@H]([C@H]1CC[C@H](N3CC4COCC4C3)CC1)CO2 (stereo partly drawn) [Compound 15],8.68,,7.00,,
CO[C@H]1CCN([C@H]2CC[C@H]([C@H]3COc4c(Cl)cc(C(=O)NCc5c(SC)cc(C)[nH]c5=O)c(C)c4O3)CC2)C1 [Compound 40],,,8.08,,
CO[C@@H]1CCN([C@H]2CC[C@H]([C@H]3COc4c(Cl)cc(C(=O)NCc5c(SC)cc(C)[nH]c5=O)c(C)c4O3)CC2)C1 [Compound 42],,8.07,7.33,,
CSc1cc(C)[nH]c(=O)c1CNC(=O)c1cc(Cl)c2c(c1C)O[C@@H]([C@H]1CC[C@H](N3CC4(CCO4)C3)CC1)CO2 [Compound 46],,8.11,7.18,,
CSc1cc(C)[nH]c(=O)c1CNC(=O)c1cc(Cl)c2c(c1C)O[C@@H]([C@H]1CC[C@H](N3CC4(CCOC4)C3)CC1)CO2 [Compound 48],,8.22,7.55,,
COC1CC2CN([C@H]3CC[C@@H]([C@H]4COc5c(Cl)cc(C(=O)NCc6c(SC)cc(C)[nH]c6=O)c(C)c5O4)CC3)CC2C1 (stereo partly drawn) [Compound 49],,8.66,8.55,,
COC1CC2CN([C@H]3CC[C@H]([C@H]4COc5c(Cl)cc(C(=O)NCc6c(SC)cc(C)[nH]c6=O)c(C)c5O4)CC3)CC2C1 (stereo partly drawn) [Compound 50],,7.93,7.62,,
Cc1cc(C)c(CNC(=O)c2cc(Cl)c3c(c2C)OC(C2CCC(N4CC(C(C)(C)O)C4)CC2)CO3)c(=O)[nH]1 (stereo not drawn) [Compound 85],7.98,,7.02,,
Cc1cc(C)c(CNC(=O)c2cc(Cl)c3c(c2C)O[C@@H](C2CCN(CC4COC4)CC2)CO3)c(=O)[nH]1 [Compound 86],7.70,,< 6.00,,
Cc1cc(C)c(CNC(=O)c2cc(Cl)c3c(c2C)O[C@@H](C2CCN(C4COC4)CC2)CO3)c(=O)[nH]1 [Compound 88],7.53,,6.51,,

SMILES,pIC50 [1],pIC50 [2],"pIC50 ([3]; Homo sapiens, KARPAS-422, 72 h)",pIC50 [3],"IC50 ([3]; Homo sapiens, KARPAS-422, 72 h, read-out: Test Example 2 H3K27Me3 inhibition (Karpas-422) IC50(nM)) [nM]"
COc1cc(C)[nH]c(=O)c1CNC(=O)c1cc(Cl)c2c(c1C)O[C@@H]([C@H]1CC[C@H](N3CC(OC)C3)CC1)CO2 [Compound 98],8.24,,6.34,,
COc1cc(C)[nH]c(=O)c1CNC(=O)c1cc(Cl)c2c(c1C)O[C@@H]([C@H]1CC[C@@H](N3CC4CC4C3)CC1)CO2 (stereo partly drawn) [Compound 113],8.03,7.04,,,
COc1cc(C)[nH]c(=O)c1CNC(=O)c1cc(Cl)c2c(c1C)O[C@@H]([C@H]1CC[C@@H](N3CC4C(C3)C4OC)CC1)CO2 (stereo partly drawn) [Compound 115],8.31,7.13,,,
CSc1cc(C)[nH]c(=O)c1CN(C)C(=O)c1cc(Cl)c2c(c1C)O[C@@H]([C@H]1CC[C@@H](N(C)C)CC1)CO2 [Compound 128],8.02,,7.36,,
Cc1cc(C)c(CNC(=O)c2c(C)c3c(c(Cl)c2F)OC[C@H]([C@H]2CC[C@H](N(C)C)CC2)O3)c(=O)[nH]1 [Compound 132],8.14,6.14,,,
COc1c(Cl)c2c(c(C)c1C(=O)NCc1c(C)cc(C)[nH]c1=O)O[C@@H]([C@H]1CC[C@@H](N(C)C)CC1)CO2 [Compound 134],8.18,6.90,,,
COc1c(Cl)c2c(c(C)c1C(=O)NCc1c(C)cc(C)[nH]c1=O)O[C@@H]([C@H]1CC[C@H](N(C)C)CC1)CO2 [Compound 135],7.10,5.25,,,
COC1C[N+]([O-])([C@H]2CC[C@@H]([C@H]3COc4c(Cl)cc(C(=O)NCc5c([S+](C)[O-])cc(C)n(O)c5=O)c(C)c4O3)CC2)C1 (stereo partly drawn) [Compound 136],7.37,6.72,,,
COC1CN([C@H]2CC[C@@H]([C@H]3COc4c(Cl)cc(C(=O)NCc5c([S+](C)[O-])cc(C)[nH]c5=O)c(C)c4O3)CC2)C1 (stereo partly drawn) [Compound 139],5.90,5.07,,,
COC1CN([C@H]2CC[C@H]([C@H]3COc4c(Cl)cc(C(=O)NCc5c([S+](C)[O-])cc(C)[nH]c5=O)c(C)c4O3)CC2)C1 (stereo partly drawn) [Compound 140],6.05,5.05,,,
Cc1cc(C)c(CNC(=O)c2cc(Cl)c3c(c2Cl)O[C@H]([C@H]2CC[C@@H](N(C)C)CC2)CO3)c(=O)[nH]1 [Compound 142],5.93,5.12,,,
Cc1cc(C)c(CNC(=O)c2cc(Cl)c3c(c2Cl)O[C@@H]([C@H]2CC[C@H](N(C)C)CC2)CO3)c(=O)[nH]1 [Compound 144],7.81,6.11,,,
Cc1cc(C)c(CNC(=O)c2cc(Cl)c3c(c2Cl)OC[C@@H]([C@H]2CC[C@H](N(C)C)CC2)O3)c(=O)[nH]1 [Compound 148],7.17,5.55,,,
COC1CN([C@H]2CC[C@H]([C@H]3COc4c(Cl)cc(C(=O)NCc5c(SC)cc(C)[nH]c5=O)c(Cl)c4O3)CC2)C1 [Compound 150],7.94,7.65,,,
COc1cc(C)[nH]c(=O)c1CNC(=O)c1cc(Cl)c2c(c1Cl)O[C@@H]([C@H]1CC[C@@H](N3CC(OC)C3)CC1)CO2 [Compound 151],,,7.88,,
COC1CN([C@H]2CC[C@H]([C@H]3COc4c(C#N)cc(C(=O)NCc5c(SC)cc(C)[nH]c5=O)c(C)c4O3)CC2)C1 [Compound 154],8.38,7.52,,,
[2H]C([2H])([2H])Sc1cc(C)[nH]c(=O)c1CNC(=O)c1cc(Cl)c2c(c1C)O[C@@H](C1CCC(N3CC(OC)C3)CC1)CO2 (stereo partly drawn) [Compound 177],8.82,8.64,,,

# From US20260184697A1, “EZH1/2 INHIBITOR, PREPARATION THEREOF, AND USE THEREOF IN ANTI-TUMOR THERAPY” (JIANGSU TASLY DIYI PHARMACEUTICAL CO., LTD., priority 2022, published 2026)
